Data set [1] relates to Mus musculus. The data set can be described thus: Immunomodulatory activity in 129/SvEvBrd X C57BL/6 F1 mouse assessed as decrease in peripheral blood lymphocyte count at 30 mg/kg, po measured after 18 hrs by complete blood count analysis relative to control. Type of data set: ADME, organism-based. The arrangement: dose 30 mg/kg, route oral; scale not given: the % may be the effect or the level left. To be noted: in vivo.

Data set [2] is described as follows: AUC (0 to infinity) in 129/SvEvBrd X C57BL/6 F1 mouse at 10 mg/kg, po by LC/MS/MS analysis. In kind it is ADME, organism-based, Plasma. The arrangement: time infinity, dose 10 mg/kg, route oral. The note with it: 129/SvEvBrd X C57BL/6 F1, mouse, plasma.

Results on 14 molecules are retold here after ChEMBL document CHEMBL1799925, “Inhibition of sphingosine 1-phosphate lyase for the treatment of rheumatoid arthritis: discovery of (E)-1-(4-((1R,2S,3R)-1,2,3,4-tetrahydroxybutyl)-1H-imidazol-2-yl)ethanone oxime (LX2931) and (1R,2S,3R)-1-(2-(isoxazol-3-yl)-1H-imidazol-4-yl)butane-1,2,3,4-tetraol (LX2932)” (J Med Chem, 2010).

As usually defined, the AUC(0-inf) is the area under the concentration-time curve extrapolated to infinity. As for `CC(=O)c1c(-c2nc([C@@H](O)[C@H](O)[C@H](O)CO)c[nH]2)noc1C.Cl`, the Activity in data set [1] was -6%. The molecule also returned an area under the curve AUC(0-inf) in data set [2] of 11.7 µM·h.
In the case of `CC(C)c1cc(-c2nc([C@@H](O)[C@H](O)[C@H](O)CO)c[nH]2)no1.Cl`, the Activity in data set [1] is reported as -30%. Moreover, the AUC(0-inf) in data set [2] is 12.8 µM·h.
On the same counts, the results for `Cl.OC[C@@H](O)[C@@H](O)[C@H](O)c1c[nH]c(-c2cc(C(F)(F)F)on2)n1` are 2% and 7.8 µM·h.
For `CC(=O)c1nc([C@@H](O)[C@H](O)[C@H](O)CO)c[nH]1.Cl`, in that order: -25% and 15 µM·h.
On the same counts, the results for `Cc1cc(-c2nc([C@@H](O)[C@H](O)[C@H](O)CO)c[nH]2)on1.Cl` are -4% and 5.3 µM·h.
As to `CCOc1cc(-c2nc([C@@H](O)[C@H](O)[C@H](O)CO)c[nH]2)no1.Cl`, the Activity in data set [1] is -26%. The AUC(0-inf) in data set [2] amounted to 9.1 µM·h.
On the same counts, the results for `Cc1onc(-c2nc([C@@H](O)[C@H](O)[C@H](O)CO)c[nH]2)c1[N+](=O)[O-].Cl` are -27% and 8.2 µM·h.
`Cl.OC[C@@H](O)[C@@H](O)[C@H](O)c1c[nH]c(C2=NOCC2)n1`: the Activity in data set [1] is given as -12%. For the same molecule, the area under the curve AUC(0-inf) in data set [2] was found to be 8.3 µM·h.
Regarding `CCc1conc1-c1nc([C@@H](O)[C@H](O)[C@H](O)CO)c[nH]1.Cl`, the Activity in data set [1] is recorded as -55%. In data set [2], this molecule had an AUC(0-inf) of 26.9 µM·h.
For `Cl.OC[C@@H](O)[C@@H](O)[C@H](O)c1c[nH]c(-c2cc(-c3ccccc3)on2)n1`, in data set [1], the Activity is -2%. Besides, the AUC(0-inf) in data set [2] was determined as 10.3 µM·h.
Consider `CN(C)Cc1cc(-c2nc([C@@H](O)[C@H](O)[C@H](O)CO)c[nH]2)no1.Cl`, for which the Activity in data set [1] is reported as -10%. Besides, the AUC(0-inf) in data set [2] stood at 5.9 µM·h.
On the same counts, the results for `Cl.OC[C@@H](O)[C@@H](O)[C@H](O)c1c[nH]c(-c2cc(C3CC3)on2)n1` are -19% and 9.6 µM·h.
For `Cl.OCc1cc(-c2nc([C@@H](O)[C@H](O)[C@H](O)CO)c[nH]2)no1`, in that order: -7% and 6.1 µM·h.
For `Cc1cc(-c2nc([C@@H](O)[C@H](O)[C@H](O)CO)c[nH]2)no1.Cl`, in that order: -39% and 12.5 µM·h.
